Laboratory results reported in patent publication US10730870B2, “Compounds and methods for the enhanced degradation of targeted proteins” (Arvinas, Inc., priority 2015, dated 2020).

Tests used:
Androgen Receptor = experiment: Androgen receptor ELISA assay (AR degradation) in LNCaP and/or VCaP cells; format: cell-based; settings: AR PROTACs
Description: Compounds have been evaluated in this assay in LNCaP and/or VCaP cells utilizing similar protocols. The protocols used with VCaP cells are described below. The androgen receptor ELISA assay was performed using PathScan AR ELISA (Cell Signaling Catalog #12850) according to the following assay steps:
VCaP cells are seeded at 30,000 cells/well at a volume of 200 μL/well in VCaP assay medium [Phenol red free RPMI (Gibco Cat #11835-030); 5% Charcoal Stripped (Dextran treated) FBS (Omega Scientific, Cat # FB-04); Pen/Strep Life Technologies (Gibco Cat #: 10378-016); 0.1 nM R1881 (Sigma, Cat # R0908) is added upon the start of the assay, not during initial plating of the cells) in Corning 3904 plates. The cells are grown for a minimum of 3 days.
(2)(i) Make 10× stock plate in media; (ii) transfer 2.5 μL of the 1000× stock to a new 10× stock plate (use 12 channel pipet, start at A (DMSO control) work thru H. When 247.5 μL of media is added to this plate, it will serve as a 10× stock; (iii) make media+1 nM R1881 for making 10× stock plate; (iv) add 247.5 μL of media with 1 nM R1881 to each well of the 10× stock plate, mix.
Then 22 μL of 10× stock is added to cells and incubated for 24h. 1× Cell Signaling Cell lysis buffer is made (Catalogue #9803; comes with the kit)—prepare for 50 μL/well. Keep on ice. Media is aspirated, and 50 μL 1× cell lysis buffer/well is added. The cells are placed on ice for 10 minutes. The solution is mixed and transferred to PCR plate, and centrifuged at 4 C for 10 minutes at 4000 rpm.
5 μL is transferred to fresh plate (use immediately or freeze −80 C); 115 μL ELISA Dilutant is added (0.15 ug/ml-0.075 ug/ml; comes with the PathScan ELISA).
Add 100 μL/well AR Elisa; cover and shake, 37 C for 2 hrs; dump, tap, wash 4×200 μL ELISA wash buffer; add 100 μL/well mouse AR detection Ab; cover and shake, 37 C for 1 hr; dump, tap, wash 4×200 μL ELISA wash buffer; add 100 μL/well anti-mouse—HRP conjugated Ab (comes with the kit); cover and shake, 37 C for 30 min; allow TMB reagent to come to RT; dump, tap, wash 4×200 μL Elisa wash buffer; tap; add 100 μL TMB, shake 5 min—while watching color. Add the stop reagent when light blue color develops. Add 100 μL Stop solution; shake and read at 450 nm.
The results presented in Table 3 were generated using the androgen receptor ELISA Assay described above, where compound potencies were characterized in highest percentage of Androgen Receptor degradation (Dmax) observed.

VHL = VHL (Homo sapiens (Human), UniProt P40337); experiment: VHL fluorescence polarization (FP) competition assay; format: binding

IC50 (VHL; 1% in DMSO) [µM] | IC50 (VHL; 10% in DMSO) [µM] | IC50 (VHL; 0.25% in DMSO) [µM] | VHL FP Assay IC50 (VHL; 1% in DMSO) | SMILES | Dmax (highest percentage of Androgen Receptor degradation) (Androgen Receptor)
 |  |  |  | Cc1ncsc1-c1ccc([C@H](C)NC(=O)[C@@H]2C[C@@H](O)CN2C(=O)[C@H](C(C)C)n2cc(OCCCOCCC(O)CCOc3ccc(N4C(=S)N(c5ccc(C#N)c(C(F)(F)F)c5)C(=O)C4(C)C)cc3)cn2)cc1 (stereo partly shown) | +++ (51%≤Dmax≤70%)
0.86 | 1.03 |  |  | COc1ccc2c(c1)CN([C@H](C(=O)N1C[C@H](O)C[C@H]1C(=O)NCc1ccc(-c3scnc3C)cc1)C(C)C)C2=O [Example 72, (2S,4R)-4-hydroxy-1-((S)-2-(5-methoxy-1-oxoisoindolin-2-yl)-3-methylbutanoyl)-N-(4-(4-methylthiazol-5-yl)benzyl)pyrrolidine-2-carboxamide] | 
5.59 |  |  |  | CC(C)[C@@H](C(=O)N1C[C@H](O)C[C@H]1C(=O)NCc1ccc(-c2ccno2)cc1)N1Cc2ccccc2C1=O [Example 136, (2S,4R)-4-hydroxy-N-(4-(isoxazol-5-yl)benzyl)-1-((S)-3-methyl-2-(1-oxoisoindolin-2-yl)butanoyl)pyrrolidine-2-carboxamide] | 
134 |  |  |  | Cc1ncsc1-c1ccc(CNC(=O)[C@@H]2C[C@@](C)(O)CN2C(=O)[C@H](C(C)C)N2Cc3ccccc3C2=O)cc1 [Example 142, (2S,4R)-4-hydroxy-4-methyl-1-((S)-3-methyl-2-(1-oxoisoindolin-2-yl)butanoyl)-N-(4-(4-methylthiazol-5-yl)benzyl)pyrrolidine-2-carboxamide] | 
1.33 | 1.67 | 2.38 |  | Cc1ncsc1-c1ccc(CNC(=O)[C@@H]2C[C@@H](O)CN2C(=O)[C@H](C(C)C)N2Cc3cc(Br)ccc3C2=O)cc1 [Example 25, (2S,4R)-1-((S)-2-(5-bromo-1-oxoisoindolin-2-yl)-3-methylbutanoyl)-4-hydroxy-N-(4-(4-methylthiazol-5-yl)benzyl)pyrrolidine-2-carboxamide] | 
0.178 | 0.339 |  |  | Cc1ncsc1-c1ccc(CNC(=O)[C@@H]2C[C@@H](O)CN2C(=O)[C@H](C(C)C)N2Cc3cccc(C#N)c3C2=O)cc1 [Example 47, (2S,4R)-1-((S)-2-(7-cyano-1-oxoisoindolin-2-yl)-3-methylbutanoyl)-4-hydroxy-N-(4-(4-methylthiazol-5-yl)benzyl)pyrrolidine-2-carboxamide] | 
> 100 |  |  |  | Cc1ncsc1-c1ccc(CN/C(=N/C#N)[C@@H]2C[C@@H](O)CN2C(=O)[C@H](C(C)C)N2Cc3ccccc3C2=O)cc1 [Example 112, (2S,4R,E)-N′-cyano-4-hydroxy-1-((S)-3-methyl-2-(1-oxoisoindolin-2-yl)butanoyl)-N-(4-(4-methylthiazol-5-yl)benzyl)pyrrolidine-2-carboximidamide] | 
7.75 |  |  |  | CC(C)[C@@H](C(=O)N1C[C@H](O)C[C@H]1C(=O)NCc1ccc(-c2scnc2C(F)(F)F)cc1)N1Cc2ccccc2C1=O [Example 102, (2S,4R)-4-hydroxy-1-((S)-3-methyl-2-(1-oxoisoindolin-2-yl)butanoyl)-N-(4-(4-(trifluoromethyl)thiazol-5-yl)benzyl)pyrrolidine-2-carboxamide] | 
56.6 | 1520 |  |  | Cc1ncsc1-c1ccc(CNC(=O)[C@@H]2C[C@@H](O)CN2C(=O)[C@@H](NC(=O)CCC(C)C)[C@H](C)O)cc1 [Example 51, (2S,4R)-4-hydroxy-1-((2S,3S)-3-hydroxy-2-(4-methylpentanamido)butanoyl)-N-(4-(4-methylthiazol-5-yl)benzyl)pyrrolidine-2-carboxamide] | 
0.905 | 1.85 | 2.42 |  | Cc1ncsc1-c1ccc(CNC(=O)[C@@H]2C[C@@H](O)CN2C(=O)[C@@H](NC(=O)c2ccccc2)C(C)(C)C)cc1 [Example 29, (2S,4R)-1-((S)-2-benzamido-3,3-dimethylbutanoyl)-4-hydroxy-N-(4-(4-methylthiazol-5-yl)benzyl)pyrrolidine-2-carboxamide] | 
0.906 | 1.2 |  |  | Cc1ncsc1-c1ccc(CNC(=O)[C@@H]2C[C@@H](O)CN2C(=O)[C@@H](NC(=O)c2ccc(C#N)cc2)C(C)(C)C)cc1 [Example 43, (2S,4R)-1-((S)-2-(4-cyanobenzamido)-3,3-dimethylbutanoyl)-4-hydroxy-N-(4-(4-methylthiazol-5-yl)benzyl)pyrrolidine-2-carboxamide] | 
14.2 |  |  |  | Cc1c(-c2ccc(CNC(=O)[C@@H]3C[C@@H](O)CN3C(=O)[C@H](C(C)C)N3Cc4ccccc4C3=O)cc2)ncn1C [Example 106, (2S,4R)—N-(4-(1,5-dimethyl-1H-imidazol-4-yl)benzyl)-4-hydroxy-1-((S)-3-methyl-2-(1-oxoisoindolin-2-yl)butanoyl)pyrrolidine-2-carboxamide] | 
0.317 | 1.07 | 2.2 |  | Cc1ncsc1-c1ccc(CNC(=O)[C@@H]2C[C@@H](O)CN2C(=O)[C@H](C(C)C)N2Cc3ccc(C#N)cc3C2=O)cc1 [Example 17, (2S,4R)-1-((S)-2-(6-cyano-1-oxoisoindolin-2-yl)-3-methylbutanoyl)-4-hydroxy-N-(4-(4-methylthiazol-5-yl)benzyl)pyrrolidine-2-carboxamide] | 
6.25 | 8.29 |  |  | CSC[C@H](NC(=O)CCC(C)C)C(=O)N1C[C@H](O)C[C@H]1C(=O)NCc1ccc(-c2scnc2C)cc1 [Example 22, (2S,4R)-4-hydroxy-1-((R)-2-(4-methylpentanamido)-3-(methylthio)propanoyl)-N-(4-(4-methylthiazol-5-yl)benzyl)pyrrolidine-2-carboxamide] | 
4.39 |  |  |  | CC(C)[C@@H](C(=O)N1C[C@H](O)C[C@H]1C(=O)NCc1ccc(-c2ncon2)cc1)N1Cc2ccccc2C1=O [Example 101, (2S,4R)—N-(4-(1,2,4-oxadiazol-3-yl)benzyl)-4-hydroxy-1-((S)-3-methyl-2-(1-oxoisoindolin-2-yl)butanoyl)pyrrolidine-2-carboxamide] | 
> 100 |  |  |  | Cc1ncsc1-c1ccc(CNC[C@@H]2C[C@@H](O)CN2C(=O)[C@H](C(C)C)N2Cc3ccccc3C2=O)cc1 [Example 121, 2-((S)-1-((2S,4R)-4-hydroxy-2-((4-(4-methylthiazol-5-yl)benzylamino)methyl)pyrrolidin-1-yl)-3-methyl-1-oxobutan-2-yl)isoindolin-1-one] | 
 |  |  | Not Active | Cc1ncsc1-c1ccc(CNC(=O)[C@@H]2C[C@@H](S)CN2C(=O)[C@H](C(C)C)N2Cc3ccccc3C2=O)cc1 [Example 119, (2S,4R)-4-mercapto-1-((S)-3-methyl-2-(1-oxoisoindolin-2-yl)butanoyl)-N-(4-(4-methylthiazol-5-yl)benzyl)pyrrolidine-2-carboxamide] | 
> 49 | 371 |  |  | COc1ccc(CNC(=O)[C@@H]2C[C@@H](O)CN2C(=O)[C@H](C(C)C)N2Cc3ccccc3C2=O)cc1 [Example 81, (2S,4R)-4-hydroxy-N-(4-methoxybenzyl)-1-((S)-3-methyl-2-(1-oxoisoindolin-2-yl)butanoyl)pyrrolidine-2-carboxamide] | 
> 100 | > 100 |  |  | CC(C)[C@@H](C(=O)N1C[C@](C)(O)C[C@H]1C(=O)O)N1Cc2ccccc2C1=O [Example 79, (2S,4R)-4-hydroxy-4-methyl-1-[(2S)-3-methyl-2-(1-oxo-2,3-dihydro-1H-isoindol-2-yl)butanoyl]pyrrolidine-2-carboxylic acid] | 
32.6 | 26.2 |  |  | Cc1ncsc1-c1ccc(CNC(=O)[C@@H]2C[C@@H](O)CN2C(=O)[C@H](c2cccs2)N2Cc3ccccc3C2=O)cc1 [Example 58, (2S,4R)-4-hydroxy-N-(4-(4-methylthiazol-5-yl)benzyl)-1-((R)-2-(1-oxoisoindolin-2-yl)-2-(thiophen-2-yl)acetyl)pyrrolidine-2-carboxamide] | 
0.309 | 0.498 | 1.28 |  | Cc1ncsc1-c1ccc(CNC(=O)[C@@H]2C[C@@H](O)CN2C(=O)[C@H](C(C)C)N2Cc3ccc(F)cc3C2=O)cc1 [Example 9] | 

SMILES | IC50 (VHL; 1% in DMSO) [µM] | IC50 (VHL; 10% in DMSO) [µM] | IC50 (VHL; 0.25% in DMSO) [µM] | VHL FP Assay IC50 (VHL; 1% in DMSO) | Dmax (highest percentage of Androgen Receptor degradation) (Androgen Receptor)
Cc1ncsc1-c1ccc(CNC(=O)[C@@H]2C[C@@H](O)CN2C(=O)[C@H](C(C)C)N2Cc3ccccc3C2=O)cc1 [Example 6, (2S,4R)-4-hydroxy-1-((S)-3-methyl-2-(1-oxoisoindolin-2-yl)butanoyl)-N-(4-(4-methylthiazol-5-yl)benzyl)pyrrolidine-2-carboxamide] | 0.697 | 1.48 | 6.37 |  | 
